ChEMBL document CHEMBL3244053, “Structural modification study of bis(substituted aminoalkylamino)anthraquinones. An evaluation of the relationship of the [2-[(2-hydroxyethyl)amino]ethyl]amino side chain with antineoplastic activity” (1979)
Active and inactive are the calls of the source. The rule behind the calls is not given here.

How the values were obtained:
B16 [1] = experiment: Antineoplastic activity against mouse B16 cells allografted in BDF1 mouse at 2 mg/kg qd for 9 days relative to control; format: functional
P388 [2] = experiment: Antineoplastic activity against mouse P388 cells allografted in CDF1 mouse assessed as survival at 8 mg/kg qd for 9 days; format: functional, organism-based; set-up: dose 8 mg/kg
B16 [3] = experiment: Antineoplastic activity against mouse B16 cells allografted in BDF1 mouse assessed as survival at 8 mg/kg qd for 9 days; format: functional, organism-based; set-up: dose 8 mg/kg
L1210 [4] = experiment: Antineoplastic activity against mouse L1210 cells allografted in CDF1 mouse assessed as survival at 4 mg/kg qd for 9 days; format: functional, organism-based; set-up: dose 4 mg/kg
P388 [5] = experiment: Antineoplastic activity against mouse P388 cells allografted in CDF1 mouse at 2 mg/kg qd for 9 days relative to control; format: functional
P388 [6] = experiment: Antineoplastic activity against mouse P388 cells allografted in CDF1 mouse at 1 mg/kg qd for 9 days relative to control; format: functional
Colon 26 [7] = experiment: Antineoplastic activity against mouse Colon 26 cells allografted in CDF1 mouse at 2 mg/kg qd for 9 days relative to control; format: functional
Colon 26 [8] = experiment: Antineoplastic activity against mouse Colon 26 cells allografted in CDF1 mouse at 8 mg/kg qd for 9 days relative to control; format: functional
B16 [9] = experiment: Antineoplastic activity against mouse B16 cells allografted in BDF1 mouse assessed as survival at 1 mg/kg qd for 9 days; format: functional, organism-based; set-up: dose 1 mg/kg
L1210 [10] = experiment: Antineoplastic activity against mouse L1210 cells allografted in CDF1 mouse at 16 mg/kg qd for 9 days relative to control; format: functional
L1210 [11] = experiment: Antineoplastic activity against mouse L1210 cells allografted in CDF1 mouse assessed as survival at 2 mg/kg qd for 9 days; format: functional, organism-based; set-up: dose 2 mg/kg
B16 [12] = experiment: Antineoplastic activity against mouse B16 cells allografted in BDF1 mouse assessed as survival at 16 mg/kg qd for 9 days; format: functional, organism-based; set-up: dose 16 mg/kg
L1210 [13] = experiment: Antineoplastic activity against mouse L1210 cells allografted in CDF1 mouse at 2 mg/kg qd for 9 days relative to control; format: functional
P388 [14] = experiment: Antineoplastic activity against mouse P388 cells allografted in CDF1 mouse assessed as survival at 4 mg/kg qd for 9 days; format: functional, organism-based; set-up: dose 4 mg/kg
L1210 [15] = experiment: Antineoplastic activity against mouse L1210 cells allografted in CDF1 mouse at 8 mg/kg qd for 9 days relative to control; format: functional
L1210 [16] = experiment: Antineoplastic activity against mouse L1210 cells allografted in CDF1 mouse assessed as survival at 8 mg/kg qd for 9 days; format: functional, organism-based; set-up: dose 8 mg/kg
Colon 26 [17] = experiment: Antineoplastic activity against mouse Colon 26 cells allografted in CDF1 mouse assessed as survival at 8 mg/kg qd for 9 days; format: functional, organism-based; set-up: dose 8 mg/kg
B16 [18] = experiment: Antineoplastic activity against mouse B16 cells allografted in BDF1 mouse assessed as survival at 2 mg/kg qd for 9 days; format: functional, organism-based; set-up: dose 2 mg/kg
B16 [19] = experiment: Antineoplastic activity against mouse B16 cells allografted in BDF1 mouse at 1 mg/kg qd for 9 days relative to control; format: functional
B16 [20] = experiment: Antineoplastic activity against mouse B16 cells allografted in BDF1 mouse at 16 mg/kg qd for 9 days relative to control; format: functional
Colon 26 [21] = experiment: Antineoplastic activity against mouse Colon 26 cells allografted in CDF1 mouse at 4 mg/kg qd for 9 days relative to control; format: functional
L1210 [22] = experiment: Antineoplastic activity against mouse L1210 cells allografted in CDF1 mouse at 4 mg/kg qd for 9 days relative to control; format: functional
P388 [23] = experiment: Antineoplastic activity against mouse P388 cells allografted in CDF1 mouse assessed as survival at 16 mg/kg qd for 9 days; format: functional, organism-based; set-up: dose 16 mg/kg
P388 [24] = experiment: Antineoplastic activity against mouse P388 cells allografted in CDF1 mouse at 8 mg/kg qd for 9 days relative to control; format: functional
Colon 26 [25] = experiment: Antineoplastic activity against mouse Colon 26 cells allografted in CDF1 mouse assessed as survival at 4 mg/kg qd for 9 days; format: functional, organism-based; set-up: dose 4 mg/kg
B16 [26] = experiment: Antineoplastic activity against mouse B16 cells allografted in BDF1 mouse at 8 mg/kg qd for 9 days relative to control; format: functional
P388 [27] = experiment: Antineoplastic activity against mouse P388 cells allografted in CDF1 mouse at 16 mg/kg qd for 9 days relative to control; format: functional
P388 [28] = experiment: Antineoplastic activity against mouse P388 cells allografted in CDF1 mouse at 4 mg/kg qd for 9 days relative to control; format: functional
B16 [29] = experiment: Antineoplastic activity against mouse B16 cells allografted in BDF1 mouse at 4 mg/kg qd for 9 days relative to control; format: functional
L1210 [30] = experiment: Antineoplastic activity against mouse L1210 cells allografted in CDF1 mouse assessed as survival at 16 mg/kg qd for 9 days; format: functional, organism-based; set-up: dose 16 mg/kg
B16 [31] = experiment: Antineoplastic activity against mouse B16 cells allografted in BDF1 mouse assessed as survival at 4 mg/kg qd for 9 days; format: functional, organism-based; set-up: dose 4 mg/kg
P388 [32] = experiment: Antineoplastic activity against mouse P388 cells allografted in CDF1 mouse assessed as survival at 1 mg/kg qd for 9 days; format: functional, organism-based; set-up: dose 1 mg/kg
Colon 26 [33] = experiment: Antineoplastic activity against mouse Colon 26 cells allografted in CDF1 mouse assessed as survival at 2 mg/kg qd for 9 days; format: functional, organism-based; set-up: dose 2 mg/kg
P388 [34] = experiment: Antineoplastic activity against mouse P388 cells allografted in CDF1 mouse assessed as survival at 2 mg/kg qd for 9 days; format: functional, organism-based; set-up: dose 2 mg/kg

With `O=C1c2ccccc2C(=O)c2c(NCCNCCO)ccc(NCCNCCO)c21` [AMETANTRONE] as the molecule, how does the T/C (B16 [1]) read?
The T/C was 172%.

And the Activity (P388 [2])?
The Activity was “Active”.

And the Activity (B16 [3])?
Its Activity is “Active”.

And the Activity (L1210 [4])?
The Activity was “Active”.

And the T/C (P388 [5])?
The T/C was 200%.

And the T/C (P388 [6])?
Its T/C is 155%.

And the T/C (Colon 26 [7])?
The T/C was 132%.

And the T/C (Colon 26 [8])?
Its T/C is 201%.

And the Activity (B16 [9])?
Its Activity is “Active”.

What about the T/C (L1210 [10]) of the same molecule?
The T/C was 234%.

What about the Activity (L1210 [11]) of the same molecule?
Its Activity is “Active”.

And the Activity (B16 [12])?
Its Activity is “Active”.

And the T/C (L1210 [13])?
Its T/C is 180%.

What about the Activity (P388 [14]) of the same molecule?
The Activity was “Active”.

What about the T/C (L1210 [15]) of the same molecule?
Its T/C is 288%.

What about the Activity (L1210 [16]) of the same molecule?
The Activity was “Active”.

And the Activity (Colon 26 [17])?
Its Activity is “Active”.

What about the Activity (B16 [18]) of the same molecule?
The Activity was “Active”.

What about the T/C (B16 [19]) of the same molecule?
The T/C was 151%.

What about the T/C (B16 [20]) of the same molecule?
Its T/C is 225%.

And the T/C (Colon 26 [21])?
The T/C was 177%.

And the T/C (L1210 [22])?
Its T/C is 193%.

What about the Activity (P388 [23]) of the same molecule?
Its Activity is “Active”.

And the T/C (P388 [24])?
Its T/C is 254%.

And the Activity (Colon 26 [25])?
The Activity was “Active”.

And the T/C (B16 [26])?
Its T/C is 204%.

And the T/C (P388 [27])?
Its T/C is 321%.

What about the T/C (P388 [28]) of the same molecule?
Its T/C is 219%.

What about the T/C (B16 [29]) of the same molecule?
Its T/C is 194%.

And the Activity (L1210 [30])?
The Activity was “Active”.

And the Activity (B16 [31])?
The Activity was “Active”.

And the Activity (P388 [32])?
Its Activity is “Active”.

And the Activity (Colon 26 [33])?
Its Activity is “Active”.

And the Activity (P388 [34])?
Its Activity is “Active”.
